Reference: patent publication US7674801B2 (AstraZeneca AB, priority 2006, dated 2010)

Target: S. aureus (SAU) GyrB ATPase (Staphylococcus aureus, UniProt P0A0K8)
Assay: S. aureus GyrB ATPase inhibition, ammonium molybdate/malachite green phosphate detection assay
Type: biochemical
Conditions: 10 compound concentrations; 500 μM ATP
Outline: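 Phosphate from ATP hydrolysis (500 μM ATP) read as malachite green/molybdate absorbance at 650 nm after acid quench. Reaction: 1.25 nM S. aureus GyrB plus 1.25 nM E. coli GyrA, sheared DNA, Hepes pH 7.5 with Mg2+. IC50 fitted over 10 concentrations, normalised to DMSO (2%) and novobiocin (2 μM) controls.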

Sequence of S. aureus (SAU) GyrB ATPase (P0A0K8 whole entry): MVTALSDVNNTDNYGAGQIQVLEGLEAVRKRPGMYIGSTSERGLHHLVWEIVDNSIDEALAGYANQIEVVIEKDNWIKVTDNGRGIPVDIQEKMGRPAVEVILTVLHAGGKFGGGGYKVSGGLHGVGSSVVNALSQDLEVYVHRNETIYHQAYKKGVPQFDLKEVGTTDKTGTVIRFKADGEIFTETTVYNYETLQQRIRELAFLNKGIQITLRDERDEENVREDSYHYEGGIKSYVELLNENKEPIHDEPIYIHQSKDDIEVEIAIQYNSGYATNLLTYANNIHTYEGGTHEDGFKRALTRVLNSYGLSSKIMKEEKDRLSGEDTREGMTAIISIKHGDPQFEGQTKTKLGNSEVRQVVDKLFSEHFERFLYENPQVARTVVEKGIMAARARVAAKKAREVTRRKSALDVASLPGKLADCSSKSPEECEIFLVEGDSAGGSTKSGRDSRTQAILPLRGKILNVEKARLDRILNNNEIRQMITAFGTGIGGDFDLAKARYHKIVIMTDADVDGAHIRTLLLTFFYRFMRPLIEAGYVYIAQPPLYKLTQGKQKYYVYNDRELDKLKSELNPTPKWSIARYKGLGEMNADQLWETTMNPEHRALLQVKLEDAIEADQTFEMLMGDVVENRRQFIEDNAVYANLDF
Sequence of S. aureus (SAU) GyrB ATPase (P0AES4 whole entry, further chain): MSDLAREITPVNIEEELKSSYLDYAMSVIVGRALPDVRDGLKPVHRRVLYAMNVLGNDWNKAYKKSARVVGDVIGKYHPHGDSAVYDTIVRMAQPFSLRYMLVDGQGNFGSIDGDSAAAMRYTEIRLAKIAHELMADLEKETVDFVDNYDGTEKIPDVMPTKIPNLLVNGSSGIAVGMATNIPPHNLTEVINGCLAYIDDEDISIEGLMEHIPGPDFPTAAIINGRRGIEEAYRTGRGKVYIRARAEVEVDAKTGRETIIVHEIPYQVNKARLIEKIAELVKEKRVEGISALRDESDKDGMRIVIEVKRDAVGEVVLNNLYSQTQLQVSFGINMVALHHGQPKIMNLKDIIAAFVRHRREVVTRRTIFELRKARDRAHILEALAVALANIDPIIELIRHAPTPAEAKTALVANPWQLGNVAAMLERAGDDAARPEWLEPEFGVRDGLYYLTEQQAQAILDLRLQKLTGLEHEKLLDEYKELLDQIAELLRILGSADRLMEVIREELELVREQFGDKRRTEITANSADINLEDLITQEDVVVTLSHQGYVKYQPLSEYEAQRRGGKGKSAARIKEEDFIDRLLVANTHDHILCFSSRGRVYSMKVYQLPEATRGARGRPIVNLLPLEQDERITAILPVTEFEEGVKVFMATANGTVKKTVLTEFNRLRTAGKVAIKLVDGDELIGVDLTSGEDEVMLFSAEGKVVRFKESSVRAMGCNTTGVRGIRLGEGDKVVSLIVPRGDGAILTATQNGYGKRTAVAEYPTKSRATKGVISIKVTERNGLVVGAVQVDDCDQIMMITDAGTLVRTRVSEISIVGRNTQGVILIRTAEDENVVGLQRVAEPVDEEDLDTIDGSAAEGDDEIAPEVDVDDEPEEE

Row | SMILES | IC50
1 | CCCCNC(=O)c1nc(-c2ccc(NC(=O)NCC)nc2)sc1C(N)=O [Example 39, N^4-Butyl-2-(6-{[(ethylamino)carbonyl]amino}pyridin-3-yl)-1,3-thiazole-4,5-dicarboxamide] | 14 nM

Same assay, conditions: compound concentration 5 μM (values marked *)

Row | SMILES | inhibition at 5 µM
2 | CCNC(=O)Nc1cccc(-c2ccc(C(=O)OCC)cc2)n1 [Example 16, Ethyl 4-(6-{[(ethylamino)carbonyl]amino}pyridin-2-yl)benzoate] | 1.28%
3 | CCNC(=O)Nc1ncc(-c2ncc(C(=O)OC)s2)cn1 [Example 14, Methyl 2-(2-{[(ethylamino)carbonyl]amino}pyrimidin-5-yl)-1,3-thiazole-5-carboxylate] | 99.5%

Same assay, conditions: read-out: S. aureus (SAU) GyrB ATPase % Inhibition, compound concentration 12.5 μM

Row | SMILES | inhibition at 12.5 µM
4 | CCNC(=O)Nc1cc(-c2nc(CC)cs2)c(-c2cncc(C(=O)N(C)C)c2)cn1 [Example 161, 6′-{[(ethylamino)carbonyl]amino}-4′-(4-ethyl-1,3-thiazol-2-yl)-N,N-dimethyl-3,3′-bipyridine-5-carboxamide] | 101%
5 | CCNC(=O)Nc1ccc(-c2ccc3nc(C(=O)O)cn3c2)cn1 [Example 28, 6-(6-{[(Ethylamino)carbonyl]amino}pyridin-3-yl)imidazo[1,2-a]pyridine-2-carboxylic acid] | 96.8%
6 | CCNC(=O)Nc1ccc(-c2nc(C(C)=O)c(C(=O)N(C)C)s2)cn1 [Example 153, 4-acetyl-2-(6-{[(ethylamino)carbonyl]amino}pyridin-3-yl)-N,N-dimethyl-1,3-thiazole-5-carboxamide] | 71.4%
7 | CCNC(=O)Nc1ccc(-c2nc(-c3nccn3CCOC)c(C(=O)O)s2)cn1 [Example 89, 2-(6-{[(ethylamino)carbonyl]amino}pyridin-3-yl)-4-[1-(2-methoxyethyl)-1H-imidazol-2-yl]-1,3-thiazole-5-carboxylic acid] | 86.1%
8 | CCNC(=O)Nc1cc(-c2nc(CC)cs2)c(-c2cccc(C(=O)O)c2)cn1 [Example 100, 3-[6-{[(Ethylamino)carbonyl]amino}-4-(4-ethyl-1,3-thiazol-2-yl)pyridin-3-yl]benzoic acid] | 99.7%
9 | CCNC(=O)Nc1ccc(-c2nc(C(=O)N(C)C)c(C(=O)O)s2)cn1 [Example 149, 4-[(dimethylamino)carbonyl]-2-(6-{[(ethylamino)carbonyl]amino}pyridin-3-yl)-1,3-thiazole-5-carboxylic acid] | 97.5%
10 | CCNC(=O)Nc1nc(-c2ccc(C(=O)O)cc2)cs1 [Example 33, 4-(2-{[(Ethylamino)carbonyl]amino}-1,3-thiazol-4-yl)benzoic acid] | 38.2%
11 | CCNC(=O)Nc1cc(-c2cncc(F)c2)c(-c2cncc(C(=O)NC)c2)cn1 [Example 70, 6′-{[(ethylamino)carbonyl]amino}-5″-fluoro-N-methyl-3,3′:4′,3″-terpyridine-5-carboxamide] | 88.2%
12 | CCNC(=O)Nc1ccc(-c2ccc3c(c2)c(=O)c(C(=O)O)cn3CCN2CCOCC2)cn1 [Example 48, 6-(6-(3-ethylureido)pyridin-3-yl)-1-(2-morpholinoethyl)-4-oxo-1,4-dihydroquinoline-3-carboxylic acid] | 101%
13 | CCCCNC(=O)c1nc(-c2cnc(NC(=O)NCC)cc2-c2nc(CC)cs2)sc1C(=O)N(C)C [Example 162, N^4-butyl-2-[6-{[(ethylamino)carbonyl]amino}-4-(4-ethyl-1,3-thiazol-2-yl)pyridin-3-yl]-N~5~,N~5~-dimethyl-1,3-thiazole-4,5-dicarboxamide] | 101%
14 | CCNC(=O)Nc1cccc(-c2cccc(C(=O)O)c2)n1 [Example 31, 3-(6-{[(Ethylamino)carbonyl]amino}pyridin-2-yl)benzoic acid] | 100%
15 | CCNC(=O)Nc1ccc(-c2cccc(C(=O)OC)c2)cn1 [Example 6, Methyl 3-(6-{[(ethylamino)carbonyl]amino}pyridin-3-yl)benzoate] | 99.7%
16 | CCNC(=O)Nc1ccc(-c2cncc(C(=O)OCC)c2)cn1 [Example 3, Ethyl 6′-{[(ethylamino)carbonyl]amino}-3,3′-bipyridine-5-carboxylate] | 55%
17 | CCNC(=O)Nc1ccc(-c2nc(C(=O)NC)c(C(N)=O)s2)cn1 [Example 115, 2-(6-{[(Ethylamino)carbonyl]amino}pyridin-3-yl)-N^4-methyl-1,3-thiazole-4,5-dicarboxamide] | 99.2%
18 | CCNC(=O)Nc1ccc(-c2nc(C(=O)N(C)C)c(C(=O)NC3CCCC3)s2)cn1 [Example 58, 2-[6-(3-Ethyl-ureido)-pyridin-3-yl]-thiazole-4,5-dicarboxylic acid 5-yclopentylamide 4-dimethylamide] | 89.3%
19 | CCNC(=O)Nc1ccc(-c2nc3cccc(C(=O)O)c3s2)cn1 [Example 20, 2-(6-{[(Ethylamino)carbonyl]amino}pyridin-3-yl)-1,3-benzothiazole-7-carboxylic acid] | 98.4%
20 | CCNC(=O)Nc1cc(-c2ccccc2)c(-c2ncc(C(=O)O)s2)cn1 [Example 97, 2-(6-{[(Ethylamino)carbonyl]amino}-4-phenylpyridin-3-yl)-1,3-thiazole-5-carboxylic acid] | 101%
21 | CCNC(=O)Nc1ccc(-c2ccc(C(=O)O)cn2)cn1 [Example 21, 6′-{[(Ethylamino)carbonyl]amino}-2,3′-bipyridine-5-carboxylic acid] | 77.1%

Row | SMILES | inhibition at 12.5 µM
22 | CCNC(=O)Nc1cc(-c2nc(C(C)(C)C)cs2)c(-c2cncc(C(=O)NC)c2)cn1 [Example 164, 4′-(4-tert-butyl-1,3-thiazol-2-yl)-6′-{[(ethylamino)carbonyl]amino}-N-methyl-3,3′-bipyridine-5-carboxamide] | 88.1%
23 | CCNC(=O)Nc1ccc(-c2ccc(C(=O)OC)cn2)cn1 [Example 5, Methyl 6′-{[(ethylamino)carbonyl]amino}-2,3′-bipyridine-5-carboxylate] | 63.7%
24 | CCNC(=O)Nc1ccc(-c2nc(C(=O)NCC)c(C(=O)N(C)C)s2)cn1 [Example 61, 2-[6-(3-Ethyl-ureido)-pyridin-3-yl]-thiazole-4,5-dicarboxylic acid 5-dimethylamide 4-ethylamide] | 92.8%
25 | CCNC(=O)Nc1cc(-c2nc(C(F)(F)F)cs2)c(-c2cncc(C(=O)N[C@@H](C)COC)c2)cn1 [Example 124, 6′-{[(Ethylamino)carbonyl]amino}-N-[(1S)-2-methoxy-1-methylethyl]-4′-[4-(trifluoromethyl)-1,3-thiazol-2-yl]-3,3′-bipyridine-5-carboxamide] | 95.1%
26 | CCNC(=O)Nc1cc(-c2nc(CC)cs2)c(-c2cncc(C(N)=O)c2)cn1 [Example 119, 6′-{[(Ethylamino)carbonyl]amino}-4′-(4-ethyl-1,3-thiazol-2-yl)-3,3′-bipyridine-5-carboxamide] | 103%
27 | CCNC(=O)Nc1ccc(-c2nc(C(=O)N(C)C)c(C(=O)NCC)s2)cn1 [Example 54, N^5-Ethyl-2-(6-{[(ethylamino)carbonyl]amino}pyridin-3-yl)-N^4,N^4-dimethyl-1,3-thiazole-4,5-dicarboxamide] | 89.8%
28 | CCNC(=O)Nc1ccc(-c2nc(C(=O)N[C@@H](C)COC)c(C(=O)OCC)s2)cn1 [Example 74, Ethyl 2-(6-{[(ethylamino)carbonyl]amino}pyridin-3-yl)-4-({[(1S)-2-methoxy-1-methylethyl]amino}carbonyl)-1,3-thiazole-5-carboxylate] | 0.95%
29 | CC(C)NC(=O)Nc1cc(-c2nc(C(F)(F)F)cs2)c(-c2cncc(C(=O)O)c2)cn1 [Example 105, 6′-{[(Isopropylamino)arbonyl]amino}-4′-[4-(trifluoromethyl)-1,3-thiazol-2-yl]-3,3′-bipyridine-5-carboxylic acid] | 94.8%
30 | CCNC(=O)Nc1ccc(-c2nc(-c3ncnn3C)c(C(=O)OC)s2)cn1 [Example 72, Methyl 2-(6-{[(ethylamino)carbonyl]amino}pyridin-3-yl)-4-(1-methyl-1H-1,2,4-triazol-5-yl)-1,3-thiazole-5-carboxylate] | 80.3%
31 | CCNC(=O)Nc1ccc(-c2ccc3c(c2)c(=O)c(C(=O)O)cn3CC(F)F)cn1 [Example 49, 1-(2,2-difluoroethyl)-6-(6-(3-ethylureido)pyridin-3-yl)-4-oxo-1,4-dihydroquinoline-3-carboxylic acid] | 37.8%
32 | CCNC(=O)Nc1ccc(-c2ncc(C(N)=O)s2)cn1 [Example 37, 2-(6-{[(Ethylamino)carbonyl]amino}pyridin-3-yl)-1,3-thiazole-5-carboxamide] | 98.9%
33 | CCNC(=O)Nc1ccc(-c2nc(C(=O)N[C@@H](C)COC)c(C(N)=O)s2)cn1 [Example 117, 2-(6-{[(Ethylamino)carbonyl]amino}pyridin-3-yl)-N^4-[(1S)-2-methoxy-1-methylethyl]-1,3-thiazole-4,5-dicarboxamide] | 101%
34 | CCCCNC(=O)c1nc(-c2ccc(NC(=O)NCC)nc2)sc1C(N)=O [Example 39, N^4-Butyl-2-(6-{[(ethylamino)carbonyl]amino}pyridin-3-yl)-1,3-thiazole-4,5-dicarboxamide] | 99%
35 | CNC(=O)c1cncc(-c2cnc(NC(=O)NC(C)C)cc2-c2nc(C(F)(F)F)cs2)c1 [Example 129, 6′-{[(Isopropylamino)carbonyl]amino}-N-methyl-4′-[4-(trifluoromethyl)-1,3-thiazol-2-yl]-3,3′-bipyridine-5-carboxamide] | 100%
36 | CCNC(=O)Nc1ccc(-c2ncc(C(=O)OC)s2)cn1 [Example 1, Methyl 2-(6-{[(ethylamino)carbonyl]amino}pyridin-3-yl)-1,3-thiazole-5-carboxylate] | 3.02%
37 | CCNC(=O)Nc1cc(-c2ccc(F)nc2)c(-c2cncc(C(=O)O)c2)cn1 [Example 104] | 89.9%
38 | CCNC(=O)Nc1cc(-c2ccc(C(=O)OCC)cc2)ccn1 [Example 138, ethyl 4-(2-{[(ethylamino)carbonyl]amino}pyridin-4-yl)benzoate] | 94.8%
39 | CCNC(=O)Nc1ccc(-c2cccc(CC(=O)O)c2)cn1 [Example 146, [3-(6-{[(ethylamino)carbonyl]amino}pyridin-3-yl)phenyl]acetic acid] | 64.3%
